In paper PMC6289942, “Development of a NS2B/NS3 protease inhibition assay using AlphaScreen® beads for screening of anti-dengue activities” (Heliyon, 2018):
Like-named read-outs stand apart in the source and are kept apart here. Where a SMILES comes first, the peptide text is derived from it. [ ]: non-standard residue; d: D form. The star is where a group is joined. Sta = CC(C)C[C@H](N)[C@@H](O)CC(=O)O; Isovaleryl = CC(C)CC(=O)*

Tests used:
dengue NS2B/NS3 protease = system: dengue NS2B/NS3 protease; set-up: method as in PMID 11581268; settings: cited from earlier work
DENV2 protease = system: DENV2 protease; set-up: method as in PMID 16621533; settings: cited from earlier work; for inhibition of protease activity: 80 ppm (200 μM) ref 21; for Ki: protease assay ref 21
[1] = Solubility of compounds for screening (DMSO stock); type: physicochemical; settings: needed 10% v/v DMSO in the assay
NS2B/NS3 protease [2] = target: T1, NS2B/NS3 protease (Dengue virus type 2, UniProt P14340); assay: NS2B/NS3 protease inhibition assay using AlphaScreen beads; type: biochemical
T1 construct: active site of the serine protease domain of the NS2B/NS3 protease; made in house; host or cells: Escherichia coli XL 1-Blue MRF
Method: The peptide substrate used in this assay has a known NS2B/NS3 cleavage site between lysine (K), and serine (S) (GRK ↓ SLT), and is a part of a sequence of dengue polyprotein precursor (NS3/NS4A) as reported by Khumtong and co-workers. The peptide substrate was tagged with a specific sequence ([…]) at N-terminal and polyhistidine at C-terminal. This specific sequence has a binding affinity towards StrepTactin®, an engineered streptavidin [37]. Glycine linkers were added on both sides of untagged peptide substrate (Fig. 1a and b). To determine the extent of N-terminal labelling on the peptide substrate, competitive displacement assay using AlphaScreen® TruHits Detection Kit (Perkin Elmer, USA) consisting of StrepTactin® donor beads and biotinylated acceptor beads was carried out. On the other hand, to ensure that the peptide substrate is adequately tagged with polyhistidine on the C-terminal, competitive binding assay using Histidine (Nickel Chelate) Detection Kit (Perkin Elmer, USA) was carried out. This kit comprises of both StrepTactin® donor beads and nickel chelate acceptor beads.
In general, AlphaScreen® experiments were carried out in white 384-well plates (Perkin Elmer, Boston, MA, USA) in a total reaction volume of 25 μL under subdued light. […] The 384-well plate was read using Envision 2104 Multilabel Plate Reader (Perkin Elmer, Boston, MA, USA) according to AlphaScreen® settings (excitation and emission wavelength at 680nm and 520-620nm, respectively). […] After incubating for 1 h, 5 μL of donor beads and acceptor beads were added, followed by 1 h incubation at room temperature prior to reading of signal. […] The optimum conditions were determined based on the maximum signal obtained from well containing peptide alone and minimum signal produced by well containing peptide substrate, enzyme and beads, indicating maximum cleavage of the NS2B/NS3 enzyme on the substrate and lowest background signal. […] Since the amount obtained for diversity 0713 was in minute quantity and was insufficient for subsequent testing, diversity 0713 was not used as control in this study. […]

NS2B/NS3 protease [3] = target: T1, NS2B/NS3 protease; assay: Protease assay using fluorogenic peptide substrate (BOC-Gly-Arg-Arg-AMC); type: biochemical
Method: Dengue NS2B/NS3 protease enzyme was expressed and purified as previously described. Briefly, NS2B/NS3 expression plasmid was propagated in Escherichia coli strain XL 1-Blue MRF (Agilent Technologies, Santa Clara, CA).The enzyme was isolated and purified using Ni^2+-NTA (nickel-nitrilotriacetic acid) resin-based column. The specific proteolytic activity of NS2B/NS3 protease was determined using similar formula as published for other proteases. Protease assay using fluorogenic peptide susbtrate (BOC-Gly-Arg-Arg-AMC) was also used to determine the NS2B/NS3 inhibition activities of the controls and derivatives. […] Cleavage of the substrate by NS2B/NS3 protease and detection of the fluorescence signal were determined using Envision 2104 Multilabel Plate Reader (Perkin Elmer, Boston, MA, USA) at excitation and emission wavelength of 385 nm and 465 nm, respectively. […]
IC50 values were derived based on non-linear regression analysis computed using GraphPad Prism 5.0 (GraphPad Software, La Jolla, CA, USA). […] The zʹ factor was calculated as described by Zhang and co-workers. zʹ factor = 1–3×(σH+σL)/|μH−μL|, where σH and σL represent the standard deviations of the AlphaScreen® signal of the substrate in the absence (high signal, H) and presence (low signal, L) of the protease, and μH and μL represent the mean values of high signal and low signal, respectively. […]

T1 sequence (P14340 1476-1653): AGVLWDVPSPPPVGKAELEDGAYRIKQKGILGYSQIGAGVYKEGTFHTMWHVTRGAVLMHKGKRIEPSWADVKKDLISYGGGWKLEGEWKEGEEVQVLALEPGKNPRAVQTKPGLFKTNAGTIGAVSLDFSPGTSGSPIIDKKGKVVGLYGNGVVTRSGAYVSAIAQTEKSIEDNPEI
T1 sequence (P14340 1346-1475): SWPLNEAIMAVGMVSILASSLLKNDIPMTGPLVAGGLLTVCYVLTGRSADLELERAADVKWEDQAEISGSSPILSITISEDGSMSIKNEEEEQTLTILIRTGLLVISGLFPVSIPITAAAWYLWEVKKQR

Molecule: Cl.NCCc1ccc(S(=O)(=O)F)cc1 [4-(2-aminoethyl) benzenesulfonyl fluoride.hydrochloride]
- inhibition of enzyme (dengue NS2B/NS3 protease; 500 μM ref 59): 20–30%

Molecule: Cl.N=C(N)c1ccc(CS(=O)(=O)F)cc1 [4-Amidinophenylmethanesulfonyl fluoride.hydrochloride]
- enzyme inhibition (in words) (dengue NS2B/NS3 protease): no enzyme inhibition

Molecule: CC(C)=CC[C@@H]1C(C)=CC[C@@H](c2ccccc2)[C@@H]1C(=O)c1c(O)cc(O)cc1O [4-hydroxypanduratin A]
- inhibition of protease activity (DENV2 protease): 65–80%
- Ki (DENV2 protease): 21 µM

Molecule: Nc1nc(SCc2ccccc2)c2[nH]cnc2n1 [Compound 8, 6-(benzylsulfanyl)-9H-purin-2-amine]
- solubility (in words) [1]: low solubility

Molecule: Nc1nc(SCc2ccccc2)c2ncn(Cc3ccccc3)c2n1 [Compound 9, 9-benzyl-6-(benzylsulfanyl)-9H-purin-2-amine]
- solubility (in words) [1]: low solubility

Molecule: c1ccc(CNc2nc(SCc3ccccc3)c3ncn(Cc4ccccc4)c3n2)cc1 [Compound 10, N, 9-dibenzyl-6-(benzylsulfanyl)-9H-purin-2-amine]
- solubility (in words) [1]: low solubility

Molecule: c1ccc(CSc2nc(N(Cc3ccccc3)Cc3ccccc3)nc3c2ncn3Cc2ccccc2)cc1 [Compound 11, N, N, 9-tribenzyl-6-(benzylsulfanyl)-9H-purin-2-amine]
- solubility (in words) [1]: low solubility

Molecule: Fc1ccc(C=Nc2nc(S)c3nc[nH]c3n2)cc1 [Compound 12, 2-(4-fluorobenzylideneamino)-9H-purine-6-thiol]
- solubility (in words) [1]: low solubility

Molecule: Cc1ccc(S(=O)(=O)N[C@@H](CCCCN)C(=O)CCl)cc1.Cl [N-Tosyl-L-lysine chloromethyl ketone.hydrochloride]
- enzyme inhibition (in words) (dengue NS2B/NS3 protease): no enzyme inhibition

Molecule: Cc1ccc(S(=O)(=O)N[C@@H](Cc2ccccc2)C(=O)CCl)cc1 [N-Tosyl-L-phenylalanine chloromethyl ketone]
- inhibition of enzyme (dengue NS2B/NS3 protease; 1 mM ref 59): 20–30%

Molecule: COc1cc(O)c(C(=O)[C@@H]2[C@H](CC=C(C)C)C(C)=CC[C@H]2c2ccccc2)c(O)c1 [Panduratin A]
- IC50 (NS2B/NS3 protease [2]): > 100 µM
- inhibition at 100 µM (NS2B/NS3 protease [2]; 100 μM, AlphaScreen assay, read-out: maximum inhibition at the highest concentration tested): > 50%
- IC50 (NS2B/NS3 protease [3]): 211 µM
- inhibition of protease activity (DENV2 protease): 65–80%
- Ki (DENV2 protease): 25 µM

Molecule: N=C(N)c1ccccc1 [benzamidine]
- enzyme inhibition (in words) (dengue NS2B/NS3 protease): no enzyme inhibition

Molecule: CC(=O)N[C@@H](CC(C)C)C(=O)N[C@@H](CC(C)C)C(=O)N[C@H](C=O)CCCNC(=N)N [leupeptin]
- enzyme inhibition (in words) (dengue NS2B/NS3 protease): no enzyme inhibition

Molecule: CC(C)CC(=O)N[C@H](C(=O)N[C@H](C(=O)N[C@@H](CC(C)C)[C@@H](O)CC(=O)N[C@@H](C)C(=O)N[C@@H](CC(C)C)[C@@H](O)CC(=O)O)C(C)C)C(C)C [pepstatin A] (Isovaleryl-VV[Sta]A[Sta]-OH)
- enzyme inhibition (in words) (dengue NS2B/NS3 protease): no enzyme inhibition

Molecule: O=S(=O)(F)Cc1ccccc1 [phenylmethylsulfonyl fluoride]
- enzyme inhibition (in words) (dengue NS2B/NS3 protease): no enzyme inhibition

Molecule: Aprotinin
- IC50 (dengue NS2B/NS3 protease; published value, different assay system ref 59): 0.065 µM
- IC50 (NS2B/NS3 protease [2]; AlphaScreen assay, read-out: IC50): 0.35 µM
- IC50 (NS2B/NS3 protease [3]; protease assay, fluorogenic substrate, 1 h at 37 °C, read-out: IC50): 0.15 µM

B1: soybean trypsin inhibitor: serine protease inhibitor (protein, UniProt P01070 25-205, looked up)
Trypsin inhibitor A: DFVLDNEGNPLENGGTYYILSDITAFGGIRAAPTGNERCPLTVVQSRNELDKGIGTIISSPYRIRFIAEGHPLSLKFDSFAVIMLCVGIPTEWSVVEDLPEGPAVKIGENKDAMDGWFRLERVSDDEFNNYKLVFCPQQAEDDKCGDIGISIDHDDGTRRLVVSKNKPLVVQFQKLDKESL
- enzyme inhibition (in words) (dengue NS2B/NS3 protease): no enzyme inhibition
